Consider 19 compounds from PubChem BioAssay (NCI).

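Briefly, cells in 96-well plates were exposed to five compound concentrations for 48 h, and endpoints were estimated by linear interpolation. The concentration for 50% growth inhibition is given as GI50. The concentration for full growth arrest is given as TGI.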 Bounds are passed on as bounds.

The first assay relates to KM12 colon. As to the kind of experiment: NCI-60 cell line screen, 48 h.
On to `COC12C=C/C(=C(/C(=O)OCc3ccncc3)C(=O)CCCCCCCCC3(OC)C=C/C(=C(/C(=O)OCc4ccncc4)C(=O)CCCCCCCC1)O3)O2`, for which the GI50 was 0.78 µM and the TGI was 1.78 µM.
Turning to `CC(C)=CCc1cc(O)cc2c1OC(C=C(C)C)C1=C2C(=O)C2=C(NCCS2(=O)=O)C1=O` (stereo unspecified), the GI50 was 4.29 µM and the TGI is above 16.7 µM.
`O=C1NC(=S)NNC12c1ccccc1-c1ccccc12` came in with a TGI above 10 µM.
Regarding `Cc1csc(Nc2nc(-c3cccc(Br)c3)nc(C(Cl)(Cl)Cl)n2)n1`, the GI50 was 1.58 µM and the TGI was 4.82 µM.
Consider `COc1c(OC)c(OC)c(C(=O)/C=C/c2ccccc2)c(OC)c1OC`, for which the TGI turned out to be 16.8 µM.
For the compound `NS(=O)(=O)c1ccc(N(/C=C/C(=O)C(F)(F)F)CC(=O)c2ccc(Cl)cc2)cc1`, the GI50 is 24.2 µM and the TGI is 73.7 µM.
`CC1=CC(=O)[C@@H](O)[C@]2(C)[C@H]3[C@@]4(O)OC[C@]35[C@H]([C@@H](C)[C@H]4O)[C@@H](O)C(=O)O[C@@H]5C[C@@H]12` yielded a TGI of 1.72 µM.
Compound `Nc1nc(N)c(N=Nc2ccc([As](=O)(O)O)cc2)c(=O)[nH]1` registered a TGI above 100 µM.
Consider `COc1ccc2[nH]cc(-c3nc(-c4c[nH]c5ncccc45)cs3)c2c1`, for which the GI50 is 3.56 µM and the TGI was above 100 µM.
As for `O=c1cc(-c2ccccc2)[nH]c2c(S)cccc12`, the TGI is above 100 µM.
Consider `C=CCc1cccc(/C=N/NC(=O)CN2CCN(Cc3ccccc3)CC2)c1O`, for which the GI50 was 2.56 µM and the TGI is 15 µM.
In turn, `N#Cc1c(-c2ccc(F)cc2)c(-c2ccc(F)cc2)nn(CCO)c1=O` displayed a TGI of 4.49 µM.

A further assay has as its system IGROV1 ovarian. The experiment in a line: NCI-60 cell line screen, 48 h.
Take `Nc1nccc2c1ccn2-c1ccc(NC(=O)c2ccc(N3CCOCC3)c(C(F)(F)F)c2)cc1`: the GI50 is 1.56 µM and the TGI amounted to 30.4 µM.
Regarding `Cc1[nH]c2ccccc2c1-c1cc(-c2cc(-c3c(C)[nH]c4ccccc34)on2)no1`, the TGI was above 100 µM.
With `Cn1cnc([N+](=O)[O-])c1S(=O)(=O)Oc1ccccc1`, the GI50 is 2.21 µM and the TGI was found to be 4.76 µM.
Taken in the same sequence, the figures for `COc1cc(C2c3cc4c(cc3C(O)C(CO)C2CO)OCO4)cc(OC)c1OC` (stereo unspecified) were 0.551 µM and above 25.9 µM.
`CCCNC(=S)/N=C/c1c(O)c2ccccc2[nH]c1=O`: the TGI is above 100 µM.
Compound `COC1C(O)=C2C(=O)O/C(C)=C/C=C/C=C/C=C\CC(c3ccccc3)NC(=O)\C=C/C=C\C=C\C=C\[C@@]2(C)[C@@H]1O` (stereo partly specified) came in with a TGI of 0.287 µM.
Take `COC12C=C/C(=C(/C(=O)OCc3ccncc3)C(=O)CCCCCCCCC3(OC)C=C/C(=C(/C(=O)OCc4ccncc4)C(=O)CCCCCCCC1)O3)O2`: the GI50 was 0.316 µM and the TGI was determined as 2.14 µM.
As for `CC(C)=CCc1cc(O)cc2c1OC(C=C(C)C)C1=C2C(=O)C2=C(NCCS2(=O)=O)C1=O` (stereo unspecified), the GI50 is 2.15 µM and the TGI came out at 5.43 µM.
Turning to `O=C1NC(=S)NNC12c1ccccc1-c1ccccc12`, the TGI was above 10 µM.
On to `Cc1csc(Nc2nc(-c3cccc(Br)c3)nc(C(Cl)(Cl)Cl)n2)n1`, for which the GI50 is above 100 µM and the TGI was above 100 µM.
The compound `COc1c(OC)c(OC)c(C(=O)/C=C/c2ccccc2)c(OC)c1OC` returned a TGI of 27.9 µM.
As for `NS(=O)(=O)c1ccc(N(/C=C/C(=O)C(F)(F)F)CC(=O)c2ccc(Cl)cc2)cc1`, the GI50 is 22.5 µM and the TGI came to 81.7 µM.
In turn, `CC1=CC(=O)[C@@H](O)[C@]2(C)[C@H]3[C@@]4(O)OC[C@]35[C@H]([C@@H](C)[C@H]4O)[C@@H](O)C(=O)O[C@@H]5C[C@@H]12` gave a TGI of 3.42 µM.
`Nc1nc(N)c(N=Nc2ccc([As](=O)(O)O)cc2)c(=O)[nH]1`: the TGI was above 100 µM.
In the case of `COc1ccc2[nH]cc(-c3nc(-c4c[nH]c5ncccc45)cs3)c2c1`, the GI50 was 5.46 µM and the TGI is above 100 µM.
The compound `O=c1cc(-c2ccccc2)[nH]c2c(S)cccc12` yielded a TGI above 100 µM.
Take `C=CCc1cccc(/C=N/NC(=O)CN2CCN(Cc3ccccc3)CC2)c1O`: the GI50 was 0.483 µM and the TGI was 3.13 µM.
In turn, `N#Cc1c(-c2ccc(F)cc2)c(-c2ccc(F)cc2)nn(CCO)c1=O` came in with a TGI above 87.4 µM.

Another assay deals with DU-145 prostate. The experiment in a line: NCI-60 cell line screen, 48 h.
For the compound `Nc1nccc2c1ccn2-c1ccc(NC(=O)c2ccc(N3CCOCC3)c(C(F)(F)F)c2)cc1`, the GI50 is 2.66 µM and the TGI amounted to 20.5 µM.
In turn, `Cc1[nH]c2ccccc2c1-c1cc(-c2cc(-c3c(C)[nH]c4ccccc34)on2)no1` showed a TGI above 100 µM.
For `Cn1cnc([N+](=O)[O-])c1S(=O)(=O)Oc1ccccc1`, the GI50 was 5.6 µM and the TGI was 17 µM.
As to `COc1cc(C2c3cc4c(cc3C(O)C(CO)C2CO)OCO4)cc(OC)c1OC` (stereo unspecified), the GI50 was 0.965 µM and the TGI was 15.4 µM.
The compound `CCCNC(=S)/N=C/c1c(O)c2ccccc2[nH]c1=O` displayed a TGI above 100 µM.
On to `COC1C(O)=C2C(=O)O/C(C)=C/C=C/C=C/C=C\CC(c3ccccc3)NC(=O)\C=C/C=C\C=C\C=C\[C@@]2(C)[C@@H]1O` (stereo partly specified), for which the TGI turned out to be 0.178 µM.
On to `COc1ccc(-c2oc(=O)ccc2-c2cc(OC)c(OC)c(OC)c2)cc1F`, for which the GI50 was 32 µM and the TGI was above 100 µM.
Taken in the same sequence, the figures for `COC12C=C/C(=C(/C(=O)OCc3ccncc3)C(=O)CCCCCCCCC3(OC)C=C/C(=C(/C(=O)OCc4ccncc4)C(=O)CCCCCCCC1)O3)O2` were 0.709 µM and 2.29 µM.
Consider `CC(C)=CCc1cc(O)cc2c1OC(C=C(C)C)C1=C2C(=O)C2=C(NCCS2(=O)=O)C1=O` (stereo unspecified), for which the GI50 was 2.18 µM and the TGI was 4.31 µM.
In turn, `O=C1NC(=S)NNC12c1ccccc1-c1ccccc12` registered a TGI above 10 µM.
For the compound `Cc1csc(Nc2nc(-c3cccc(Br)c3)nc(C(Cl)(Cl)Cl)n2)n1`, the GI50 is 0.419 µM and the TGI amounted to 3.21 µM.
Compound `COc1c(OC)c(OC)c(C(=O)/C=C/c2ccccc2)c(OC)c1OC` showed a TGI of 12 µM.
With `NS(=O)(=O)c1ccc(N(/C=C/C(=O)C(F)(F)F)CC(=O)c2ccc(Cl)cc2)cc1`, the GI50 is 93.3 µM and the TGI is above 100 µM.
